# Patent US8461305B2, “L-fucose α1→6 specific lectin” (J-Oil Mills, Inc., priority 2008, dated 2013)
# Experiments:
# [1] = frontal affinity chromatography (FAC), association constant to PA sugar chains having other L-fucose; type: binding; conditions: for association constant Ka: 25 degrees C.
# Procedure, shortened: (§1)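 Lectin coupled via primary amines to NHS-activated sepharose in a miniature column, run in TBS (pH 7.4) at 0.125 ml/min and 25 degrees C. PA sugar chains (3.75 nM or 7.5 nM) applied in excess, with elution monitored by fluorescence (ex 310/em 380 nm). Ka calculated from front-end delay (V−Vo) versus PA rhamnose and effective ligand amount (Bt).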
# [2] = frontal affinity chromatography (FAC), association constant to PA sugar chains without L-fucose; type: binding; conditions: for association constant Ka: 25 degrees C.
# Procedure, shortened: as §1
substance,measurement,setting,value
"Pholiota terrestris lectin [PTL, novel L-fucose α1→6 specific lectin purified from the mushroom Pholiota terrestris]",binding to non-L-fucose α1→6 sugar chain,[1]; FAC,not bound
same,association constant Ka,[1]; Sugar chain No. 419,<1000 M⁻¹
same,association constant Ka,[1]; Sugar chain No. 420,<1000 M⁻¹
same,association constant Ka,[1]; Sugar chain No. 718,<1000 M⁻¹
same,association constant Ka,[1]; Sugar chain No. 719,<1000 M⁻¹
same,association constant Ka,[1]; Sugar chain No. 720,<1000 M⁻¹
same,association constant Ka,[1]; Sugar chain No. 721,<1000 M⁻¹
same,association constant Ka,[1]; Sugar chain No. 722,<1000 M⁻¹
same,association constant Ka,[1]; Sugar chain No. 723,<1000 M⁻¹
same,association constant Ka,[1]; Sugar chain No. 726,<1000 M⁻¹
same,association constant Ka,[1]; Sugar chain No. 727,<1000 M⁻¹
same,association constant Ka,[1]; Sugar chain No. 728 (as listed in Table 5/12),<1000 M⁻¹
same,association constant Ka,[1]; Sugar chain No. 729,<1000 M⁻¹
same,association constant Ka,[1]; Sugar chain No. 730,<1000 M⁻¹
same,association constant Ka,[1]; Sugar chain No. 731,<1000 M⁻¹
same,association constant Ka,[1]; Sugar chain No. 739,<1000 M⁻¹
same,association constant Ka,[1]; Sugar chain No. 909,<1000 M⁻¹
same,association constant Ka,[1]; Sugar chain No. 910,<1000 M⁻¹
same,association constant Ka,[1]; Sugar chain No. 931,<1000 M⁻¹
same,association constant Ka,[1]; Sugar chain No. 932,<1000 M⁻¹
same,association constant Ka,[1]; Sugar chain No. 933,<1000 M⁻¹
same,binding to sugar chain not having L-fucose,[2]; FAC,not bound
same,association constant Ka,[2]; Sugar chain No. 001,<1000 M⁻¹
same,association constant Ka,[2]; Sugar chain No. 002,<1000 M⁻¹
same,association constant Ka,[2]; Sugar chain No. 003,<1000 M⁻¹
same,association constant Ka,[2]; Sugar chain No. 004,<1000 M⁻¹
same,association constant Ka,[2]; Sugar chain No. 005,<1000 M⁻¹
same,association constant Ka,[2]; Sugar chain No. 006,<1000 M⁻¹
same,association constant Ka,[2]; Sugar chain No. 007,<1000 M⁻¹
same,association constant Ka,[2]; Sugar chain No. 008,<1000 M⁻¹
same,association constant Ka,[2]; Sugar chain No. 009,<1000 M⁻¹
same,association constant Ka,[2]; Sugar chain No. 010,<1000 M⁻¹
same,association constant Ka,[2]; Sugar chain No. 011,<1000 M⁻¹
same,association constant Ka,[2]; Sugar chain No. 012,<1000 M⁻¹
same,association constant Ka,[2]; Sugar chain No. 013,<1000 M⁻¹
same,association constant Ka,[2]; Sugar chain No. 014,<1000 M⁻¹
same,association constant Ka,[2]; Sugar chain No. 101,<1000 M⁻¹
same,association constant Ka,[2]; Sugar chain No. 103,<1000 M⁻¹
same,association constant Ka,[2]; Sugar chain No. 104,<1000 M⁻¹
same,association constant Ka,[2]; Sugar chain No. 105,<1000 M⁻¹
same,association constant Ka,[2]; Sugar chain No. 107,<1000 M⁻¹
same,association constant Ka,[2]; Sugar chain No. 108,<1000 M⁻¹
same,association constant Ka,[2]; Sugar chain No. 301,<1000 M⁻¹
same,association constant Ka,[2]; Sugar chain No. 304,<1000 M⁻¹
same,association constant Ka,[2]; Sugar chain No. 305,<1000 M⁻¹
same,association constant Ka,[2]; Sugar chain No. 307,<1000 M⁻¹
same,association constant Ka,[2]; Sugar chain No. 308,<1000 M⁻¹
same,association constant Ka,[2]; Sugar chain No. 313,<1000 M⁻¹
same,association constant Ka,[2]; Sugar chain No. 314,<1000 M⁻¹
same,association constant Ka,[2]; Sugar chain No. 323,<1000 M⁻¹
same,association constant Ka,[2]; Sugar chain No. 501,<1000 M⁻¹
same,association constant Ka,[2]; Sugar chain No. 502,<1000 M⁻¹
same,association constant Ka,[2]; Sugar chain No. 503,<1000 M⁻¹
same,association constant Ka,[2]; Sugar chain No. 504,<1000 M⁻¹
same,association constant Ka,[2]; Sugar chain No. 701,<1000 M⁻¹
same,association constant Ka,[2]; Sugar chain No. 702,<1000 M⁻¹
same,association constant Ka,[2]; Sugar chain No. 703,<1000 M⁻¹
same,association constant Ka,[2]; Sugar chain No. 704,<1000 M⁻¹
same,association constant Ka,[2]; Sugar chain No. 705,<1000 M⁻¹
same,association constant Ka,[2]; Sugar chain No. 706,<1000 M⁻¹
same,association constant Ka,[2]; Sugar chain No. 707,<1000 M⁻¹
same,association constant Ka,[2]; Sugar chain No. 708,<1000 M⁻¹
same,association constant Ka,[2]; Sugar chain No. 709,<1000 M⁻¹
same,association constant Ka,[2]; Sugar chain No. 710,<1000 M⁻¹
same,association constant Ka,[2]; Sugar chain No. 711,<1000 M⁻¹
same,association constant Ka,[2]; Sugar chain No. 712,<1000 M⁻¹
same,association constant Ka,[2]; Sugar chain No. 713,<1000 M⁻¹
same,association constant Ka,[2]; Sugar chain No. 715,<1000 M⁻¹
same,association constant Ka,[2]; Sugar chain No. 716,<1000 M⁻¹
same,association constant Ka,[2]; Sugar chain No. 717,<1000 M⁻¹
same,association constant Ka,[2]; Sugar chain No. 724,<1000 M⁻¹
same,association constant Ka,[2]; Sugar chain No. 725,<1000 M⁻¹
same,association constant Ka,[2]; Sugar chain No. 728 (as listed in Table 7),<1000 M⁻¹
same,association constant Ka,[2]; Sugar chain No. 732,<1000 M⁻¹
same,association constant Ka,[2]; Sugar chain No. 733,<1000 M⁻¹
same,association constant Ka,[2]; Sugar chain No. 734,<1000 M⁻¹
same,association constant Ka,[2]; Sugar chain No. 735,<1000 M⁻¹
same,association constant Ka,[2]; Sugar chain No. 736,<1000 M⁻¹
same,association constant Ka,[2]; Sugar chain No. 737,<1000 M⁻¹
same,association constant Ka,[2]; Sugar chain No. 738,<1000 M⁻¹
same,association constant Ka,[2]; Sugar chain No. 901,<1000 M⁻¹
same,association constant Ka,[2]; Sugar chain No. 902,<1000 M⁻¹
same,association constant Ka,[2]; Sugar chain No. 903,<1000 M⁻¹
same,association constant Ka,[2]; Sugar chain No. 905,<1000 M⁻¹
same,association constant Ka,[2]; Sugar chain No. 906,<1000 M⁻¹
same,association constant Ka,[2]; Sugar chain No. 907,<1000 M⁻¹
